These results are taken from the supplement of paper PMC10949913.

Holding throughout (assay): area under concentration-response curve (viability) (AUC (a.u.)); higher = less active
Conditions in all cases: 48 h

The subject of one experiment is NCI-H295R. The essentials: (§1)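 Concentration-response curves were fitted to obtain AC50 and area under the curve, keeping inhibitory or non-responding curve classes only. Data came from CellTiter-Glo luminescence, normalised per plate to vehicle and empty-well controls, in three adrenocortical carcinoma cell lines. These were treated in 1,536-well plates with library compounds at 11 concentrations and read after 48 h.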

For another experiment, the system named is CU-ACC1. Summed up:
as §1

A further experiment has as its system CU-ACC2. The essentials: as §1

In the case of `CC1(C)S[C@H]2[C@H](NC(=O)[C@@H](N)c3ccc(O)cc3)C(=O)N2[C@H]1C(=O)O`, the “area under concentration-response curve” value with NCI-H295R was found to be 545; in the experiment on CU-ACC1, 511; with CU-ACC2, 597.
The matching figures for `CCC(=O)NCC[C@@H]1CCc2ccc3c(c21)CCO3`: 531, 490 and 564.
The matching figures for `CN1\C(=C(\O)C2=C(C=CS2)[S+]1([O-])=O)C(=O)NC3=CC=CC=N3`: 573, 548 and 616.
For the compound `C1CN\2C[C@@H](\N=C2S1)C3=CC=CC=C3`, the “area under concentration-response curve” value in the experiment with NCI-H295R was 575; in the experiment on CU-ACC1 it was 506; with CU-ACC2, 626.
On the same counts, the results for `O=C(O)CCNC(=O)c1ccc(/N=N/c2ccc(O)c(C(=O)O)c2)cc1` are 589, 519 and 635.
The matching figures for `c1coc(CNc2ncnc3nc[nH]c23)c1`: 565, 409 and 556.
The matching figures for `O=C(O)CCn1c2c(c3ccccc31)C[C@H](N[S+](=O)([O-])c1ccc(F)cc1)CC2`: 496, 445 and 540.
As to `NCC[S+](=O)([O-])O`, the “area under concentration-response curve” value in the experiment with NCI-H295R came out at 488; in the experiment on CU-ACC1 it was 495; with CU-ACC2 it was 585.
`O=C1[C@H](CC[C@H](O)c2ccc(F)cc2)[C@@H](c2ccc(O)cc2)N1c1ccc(F)cc1`: the “area under concentration-response curve” value in the experiment on NCI-H295R was 565; in the experiment with CU-ACC1, 536; in the experiment on CU-ACC2, 650.
Turning to `CC(=O)N1CCC[C@H]1C(=O)N[C@@H](Cc1c[nH]cn1)C(=O)N[C@@H](CO)C(=O)N[C@@H](CS)C(=O)N[C@@H](CC(N)=O)C(N)=O`, the “area under concentration-response curve” value was found to be 498 in the experiment with NCI-H295R, 382 in the experiment on CU-ACC1 and 527 in the experiment on CU-ACC2.
On the same counts, the results for `C[N]1C=C(C2=CC=CC=C12)/C3=C(/C(=O)NC3=O)C4=C[N](C)C5=CC(=CC=C45)[N+]([O-])=O` are 454, 611 and 608.
The matching figures for `CO[C@H]1/C=C/O[C@@]2(C)Oc3c(C)c(O)c4c(c3C2=O)C2=NC3(CCN(CC(C)C)CC3)NC2=C(NC(=O)/C(C)=C/C=C/[C@H](C)[C@H](O)[C@@H](C)[C@@H](O)[C@@H](C)[C@H](OC(C)=O)[C@@H]1C)C4=O`: 530, 491 and 607.
Take `CN1\C(=C(\O)C2=CC=CC=C2[S+]1([O-])=O)C(=O)NC3=NC=C(C)S3`: the entries for the “area under concentration-response curve” value with NCI-H295R, in the experiment with CU-ACC1 and in the experiment with CU-ACC2 were 511, 461 and 523, respectively.
The matching figures for `COc1cc2cc(c1Cl)N(C)C(=O)C[C@H](OC(=O)C(C)C)[C@]1(C)O[C@@H]1[C@H](C)[C@@H]1C[C@@](O)(NC(=O)O1)[C@H](OC)/C=C/C=C(\C)C2`: 346, 505 and 440.
The matching figures for `N[S+](=O)([O-])NCCNc1nonc1/C(=N/O)Nc1ccc(F)c(Br)c1`: 468, 524 and 595.
Regarding `CCc1c(C(=O)C(N)=O)c2c(OCC(=O)O)cccc2n1Cc1ccccc1`, the “area under concentration-response curve” value with NCI-H295R is 550; in the experiment on CU-ACC1, 572; in the experiment with CU-ACC2, 599.
On to `COCCOc1ccc(N2CCN(CCn3ncc4c3nc(N)n3nc(-c5ccco5)nc43)CC2)cc1`, for which the entries for the “area under concentration-response curve” value with NCI-H295R, in the experiment on CU-ACC1 and with CU-ACC2 were 530, 552 and 606, respectively.
As for `O=C1Cc2cc(C(=O)NC3C[C@H]4CC[C@@H](C3)N4[S+](=O)([O-])CC3CCN(CCCC(F)(F)F)CC3)c(Cl)cc2N1` (some centres undefined), the “area under concentration-response curve” value in the experiment with NCI-H295R was 539; with CU-ACC1 it was 525; with CU-ACC2, 611.
The matching figures for `NC1CCC(N[C@@H]2C[C@H]2c2ccccc2)CC1` (some centres undefined): 458, 409 and 487.
As to `CO[C@H]1C[C@@H]2CC[C@@H](C)[C@@](O)(O2)C(=O)C(=O)N2CCCC[C@H]2C(=O)O[C@H]([C@H](C)C[C@@H]2CC[C@@H](OC(=O)C(C)(CO)CO)[C@H](OC)C2)CC(=O)[C@H](C)/C=C(\C)[C@@H](O)[C@@H](OC)C(=O)[C@H](C)C[C@H](C)/C=C/C=C/C=C/1C`, the figures for the “area under concentration-response curve” value with NCI-H295R, in the experiment on CU-ACC1 and with CU-ACC2 were 530, 488 and 483, respectively.
For the compound `N#C[C@@H]1C[C@@H]2C[C@@H]2N1C(=O)[C@@H](N)C12CC3CC(CC(O)(C3)C1)C2`, the “area under concentration-response curve” value in the experiment with NCI-H295R turned out to be 517; in the experiment with CU-ACC1, 500; with CU-ACC2 it was 598.
The matching figures for `CC(C)C/1=C(NC2=C(C=N[N]2C1=O)C#N)\C3=CC=CC=C3`: 480, 497 and 580.
On the same counts, the results for `CC(C)(C(=O)NCC(F)(F)C(F)(F)F)C(=O)N[C@@H]1C(=O)Nc2ccccc2-c2ccccc21` are 459, 413 and 500.
The matching figures for `CC[C@@]1(O)C(=O)OCC/2=C1/C=C/3N(CC4=C(CCNC(C)C)C5=CC=CC=C5N=C34)C2=O`: 654, 538 and 611.
In the case of `Fc1ccc(Cl)cc1-c1nc(Nc2ccncc2)c2nccnc2n1`, the “area under concentration-response curve” value was found to be 549 with NCI-H295R, 553 in the experiment with CU-ACC1 and 612 in the experiment on CU-ACC2.
Consider `C\C1=C(\SSC1=S)C2=CN=CC=N2`, for which the “area under concentration-response curve” value was 569 with NCI-H295R, 524 in the experiment on CU-ACC1 and 618 with CU-ACC2.
As to `COc1cc2ncnc(Nc3ccc(O)c(Br)c3)c2cc1OC`, the “area under concentration-response curve” value in the experiment with NCI-H295R stood at 528; with CU-ACC1, 479; in the experiment with CU-ACC2, 602.
On the same counts, the results for `C#Cc1cccc(Nc2ncnc3cc4c(cc23)OCCOCCOCCO4)c1` are 546, 462 and 599.
Consider `NC[C@H]1O[C@H](O[C@@H]2[C@H](O)[C@@H](O[C@H]3O[C@H](CO)[C@@H](O)[C@H](N)[C@H]3O)[C@H](N)C[C@@H]2N)[C@H](O)[C@@H](O)[C@@H]1O`, for which the “area under concentration-response curve” value with NCI-H295R amounted to 520; in the experiment with CU-ACC1 it was 472; in the experiment with CU-ACC2, 583.
The matching figures for `COc1cc(C)c(/C=C/C(C)=C/C=C/C(C)=C/C(=O)O)c(C)c1C`: 524, 484 and 544.
Regarding `CCOC(=O)C(C)(C)Oc1ccc(Cl)cc1`, the “area under concentration-response curve” value with NCI-H295R stood at 444; in the experiment with CU-ACC1, 451; in the experiment with CU-ACC2 it was 453.
On the same counts, the results for `Oc1cc(O)cc(/C=C/c2ccc(O)c(O)c2)c1` are 525, 519 and 511.
The matching figures for `NC12CC3CC(CC(C3)C1)C2`: 523, 466 and 509.
On the same counts, the results for `N#C/C(=C(/N)Sc1ccc(N)cc1)c1ccccc1C(F)(F)F` are 585, 533 and 574.
Consider `O=C1\C=C/C=C2/[C@H]3CNC[C@H](C3)CN12`, for which the “area under concentration-response curve” value in the experiment with NCI-H295R was 576; in the experiment with CU-ACC1, 593; in the experiment with CU-ACC2, 663.
On the same counts, the results for `OC(COC1=C2C(=O)\C=C(/OC2=CC=C1)C([O-])=O)COC3=C4C(=O)\C=C(/OC4=CC=C3)C([O-])=O` are 555, 527 and 624.
With `COc1ccc([C@@H](O)[C@@H](C)Oc2ccc([C@H]3O[C@H](c4ccc(O[C@H](C)[C@H](O)c5ccc(OC)c(OC)c5)c(OC)c4)[C@H](C)[C@H]3C)cc2OC)cc1OC`, the “area under concentration-response curve” value worked out at 479 in the experiment on NCI-H295R, 269 in the experiment with CU-ACC1 and 575 in the experiment with CU-ACC2.
Regarding `COC(c1ccccc1)(c1ccccc1)[C@H](Oc1nc(C)cc(C)n1)C(=O)O`, the entries for the “area under concentration-response curve” value with NCI-H295R, in the experiment with CU-ACC1 and in the experiment with CU-ACC2 were 578, 531 and 586, respectively.
